Holding throughout (type): cell-based
In one assay the test system is E. coli bacteria. The assay can be described thus: Digital microscopy of E. coli bacteria exposed to antibiotic dilution (elongation). The note with it: FIG. 17 versus unexposed FIG. 18. The text has this: Data extraction step 117 may be configured to derive information regarding the ratio between the total count of microbes and the total area occupied by all of the microbes in the image. This information may be useful in determining whether the microbes are undergoing elongation over time. Elongation is a precursor to death and indicates the concentration of the antimicrobic dilution is negatively affecting the microbes. More specifically, elongation may occur when microbes such as bacteria encounter an effective amount of antibiotic drugs. For example, FIGS. 17 and 18 depict microbes embodied by E. coli bacteria. FIG. 17 depicts the E. coli after being exposed to a dilution of the antibiotic ampicillin, while FIG. 18 depicts the E. coli free from any ampicillin exposure. […] This elongation is a precursor to the death of the bacteria and illustrates that the concentration of ampicillin is sufficient to neutralize the bacteria. FIG. 18 illustrates normal growth. It follows that the ratio between the total area occupied by all of the bacteria and the bacteria count will increase over time to represent each bacterium elongating. For example, if a particular image sample includes 100 bacteria and each bacterium measures approximately 4 pixels each, the area occupied by the 100 bacteria within the image is 400 pixels. In this image sample, the ratio of bacteria area to bacteria count is 4.0. […]

For assay [1], the system named is P. fluorescens. The assay can be described thus: Actual MIC (reference read after full growth period). On the procedure: In AST testing, a plurality of test wells are filled with inoculum and increasing concentrations of a number of different antimicrobial agents, for example antibiotics. The different antimicrobial agents may be diluted in a growth medium or liquid medium to concentrations that include those of clinical interest. After incubation, the turbidity will be increased or unchanged in test wells where growth has not been inhibited by the antimicrobics in those test wells. The MIC of each antimicrobial agent is measured by lack of growth with respect to each concentration of antimicrobial agent. It follows that the lowest concentration of antimicrobial agent displaying a lack of growth is the MIC. As set forth above, neural networks can be used to model growth patterns of a bacterial isolate over time at various drug concentrations. As long as the bacteria grows in the well with no drug, then a neural network can be created to use the count and area of the growth well and at the various drug concentrations to make an early prediction of the MIC. […]

The subject of assay [2] is P. fluorescens. The assay can be described thus: MIC prediction by neural network from digital microscopy of AST test wells. An excerpt:
FIG. 8 provides an illustration of how data that can be used in an optimized AST method 101 can be captured from a test well. Test well 20 is embodied by a “384” style test well, having a clear viewing bottom. The volume of inoculum in test well 20 may be set to 20 microliters to reduce the amount of materials such as bulk diluents required by AST method 101 and/or minimize light artifacts and provide sampling of a consistent number of microbes from the 1:250 dilution of the 0.5 MacFarland inoculum. Decreasing the volume of inoculum in test well 20 generally increases the light artifacts. In some instances, capturing a single vertical plane 103 at 20× objective whereby AST camera 35 is set at 0.33 microns/pixel may be sufficient for sampling the inoculum and ensuring that each individual microbe is recognizable. However, these parameters are configurable and may change as desired by the user or the underlying needs of the system. Capturing three focal sites spaced about 5 microns apart within single vertical plane 103 may also provide a sufficient number of microbes in the sample to count for use in optimized AST method 101. These three focal sites are labeled site 105, site 107, and site 109 in FIG. 8. In an exemplary version of optimized AST method 101, each focal site is approximately 700×700 microns within single vertical plane 103, rather than capturing three sites in three different vertical planes. AST camera 35, optics system 9, and computer 49 are configured to capture an image of each focal site in consecutive time periods, manipulate each of these images, and thereafter use the data derived from these manipulated images to make a MIC determination. In some embodiments, to use a neural network such as illustrated in FIG. 24 to make a MIC prediction, a test well containing some concentration of an antimicrobial could be inoculated with a microorganism. Data could then be gathered by taking measurements in a manner similar to that described above in the context of the decision tree and neural network classifiers of FIGS. 20-23B and 25. These measurements, along with the identity and concentration of the antimicrobial in the test well could then be provided as inputs to the neural network's input nodes. The values provided on the network's output nodes could then be treated as indications of the likelihood that the concentrations corresponding to the output nodes were the MIC for the microorganism added to the test well. For example, when using a network which had been trained to provide a likelihood that a first concentration is the MIC on a first output node, a likelihood that a second concentration is the MIC on a second output node, and a likelihood that a third concentration is the MIC on a third output node, the concentration corresponding to the output node with the highest value (which might not be the same as the concentration of the antimicrobial in the test well from which the data was gathered) could be treated as the MIC. In some embodiments, rather than using values of the output nodes of a network such as shown in FIG. 24 as directly indicating the MIC, values from such output nodes may be used as inputs to another function that would provide a (potentially more reliable) MIC value. For example, in some embodiments, separate sets of measurements could be gathered from each of a plurality of test wells having different concentrations of the same antimicrobial, and those sets of measurements could each be provided as input to a neural network such as illustrated in FIG. 24. Each of those neural networks would then provide a prediction of the most likely MIC, and those predictions could be provided as input to another function (e.g., a statistical function, such as a mode or median identification function) that would provide a prediction that would be treated as the true MIC for the sample.

Results on 2 compounds are retold here after patent US20210332320A1, “ANTIMICROBIC SUSCEPTIBILITY TESTING USING MACHINE LEARNING” (Beckman Coulter, Inc., priority 2018, published 2021).

As to `CC1(C)S[C@@H]2[C@H](NC(=O)[C@H](N)c3ccccc3)C(=O)N2[C@H]1C(=O)O` [ampicillin], the “growth morphology after exposure to a dilution of the antibiotic” value in the assay with E. coli bacteria is on record as “abnormal growth in the form of elongation”.
Turning to `CC(C)(O/N=C(\C(=O)N[C@@H]1C(=O)N2C(C(=O)[O-])=C(C[n+]3ccccc3)CS[C@H]12)c1csc(N)n1)C(=O)O` [Caz, Ceftazidime], in the assay with P. fluorescens [1], the “actual MIC” value was “example was 2. μg/ml”. Moreover, the “final predicted MIC” value in the assay with P. fluorescens [2] (median of the predictions of the 11 drug concentration wells) is “which in this case is 2. μg/ml”. Further, the “Predicted MIC” value with P. fluorescens [2] (prediction from test well with dilution 0.06 μg/ml), in the assay on P. fluorescens [2] (prediction from test well with dilution 0.12 μg/ml), with P. fluorescens [2] (prediction from test well with dilution 0.25 μg/ml), in the assay with P. fluorescens [2] (prediction from test well with dilution 0.5 μg/ml), in the assay with P. fluorescens [2] (prediction from test well with dilution 1 μg/ml) and in the assay on P. fluorescens [2] (prediction from test well with dilution 2 μg/ml) was 2 µg/mL in each case. Also, the “Predicted MIC” value in the assay on P. fluorescens [2] (prediction from test well with dilution 4 μg/ml) is 32 µg/mL; in the assay with P. fluorescens [2] (prediction from test well with dilution 8 μg/ml) it was 2 µg/mL; with P. fluorescens [2] (prediction from test well with dilution 16 μg/ml) it was 2 µg/mL; in the assay on P. fluorescens [2] (prediction from test well with dilution 32 μg/ml), 2 µg/mL; in the assay on P. fluorescens [2] (prediction from test well with dilution 64 μg/ml) it was 2 µg/mL.
